From patent publication US7226904B2, “Agents and methods for promoting bone growth” (priority 2000, dated 2007)
Peptide text beside a SMILES is read from it. * marks the point of attachment. αGalNAc = CC(=O)N[C@@H]1[C@@H](O)[C@@H](O)[C@@H](CO)O[C@@H]1*

The compounds below were run on normal adult rats (assay: Systemic (subcutaneous) administration to normal adult rats, pQCT bone densitometry of tibia). Conditions: 0.4 ng/g B.W. every 2 days for two weeks, vs saline.
Assay type: in vivo, rat
Protocol: After humane sacrifice, long bones were collected from rats subjected to agent treatment as described in Examples 1 and 2. The bones were evaluated using densitometry techniques with the Norland Medical Systems pQCT scanner. The densitometric parameters that were determined included: • 1. Total Content, which is the mineral content of the bone within a 1 mm slice. • 2. Total Density, which is the mean density of the total bone. • 3. Trabecular Content, which is the mineral content of the trabecular bone within a 1 mm slice. • 4. Trabecular Density, which is the mean density of the trabecular bone • 5. Cortical Content, which is the mineral content of the cortical bone within a 1 mm slice. • 6. Cortical Density, which is the mean density of the […]. • 7. Periosteal circumference in the “circular ring model” in mm. • 8. Endosteal circumference in the “circular ring model” in mm. • 9. Total area (mm^2), which is the cross sectional area of the bone after the soft tissue has been peeled off. • 10. Cortical area (mm^2), which is the area assigned to be pure cortical. • 11. Trabecular area (mm^2), which is the cross sectional area of the trabecular area after the cortical and subcortical area has been peeled off. Effects of Agents on Bone Density:
Non-glycosylated fADBP, at a dosage of 0.4 ng/g of body weight, was administered by subcutaneous injection into normal adult rats every two days for two weeks. The effect of this treatment on bone density and DpD levels was assayed as described above.
Glycosylated fADBP, at a dosage of 5.0 ng/g of body weight was administered by subcutaneous injection into normal adult rats every two days for two weeks. The effect of this treatment on bone density was assayed as described above.
Non-glycosylated DBP peptides of different lengths, at a dosage of 0.4 ng/g of body weight, were administered by subcutaneous injection into normal adult rats every two days for two weeks. The DBP peptides were derived from fADBP and comprised the first 3, 4, 5, 6, 7, 8, 9, 10, 11, 12, and 13 amino acids of SEQ ID NO. 1. After humane sacrifice, the tibia was collected from control and DBP peptide treated rats and analyzed using densitometry techniques with the Norland Medical Systems pQCT scanner. Statistical analysis was performed

Compound | Total Bone Density
DBP peptide 3: first 3 amino acids of SEQ ID NO. 1 (Thr Pro Thr) (TPT; listed as Homo sapiens) | significantly increased
DBP peptide 4: first 4 amino acids of SEQ ID NO. 1 (Thr Pro Thr Glu) (TPTE; listed as Homo sapiens) | significantly increased
DBP peptide 5: first 5 amino acids of SEQ ID NO. 1 (Thr Pro Thr Glu Leu) (TPTEL; listed as Homo sapiens) | significantly increased
DBP peptide 6: first 6 amino acids of SEQ ID NO. 1 (Thr Pro Thr Glu Leu Ala) (TPTELA; listed as Homo sapiens) | significantly increased
DBP peptide 7: first 7 amino acids of SEQ ID NO. 1 (Thr Pro Thr Glu Leu Ala Lys) (TPTELAK; listed as Homo sapiens) | significantly increased
DBP peptide 8: first 8 amino acids of SEQ ID NO. 1 (Thr Pro Thr Glu Leu Ala Lys Leu) (TPTELAKL; listed as Homo sapiens) | significantly increased
DBP peptide 10: first 10 amino acids of SEQ ID NO. 1 (Thr Pro Thr Glu Leu Ala Lys Leu Val Asn) (TPTELAKLVN; listed as Homo sapiens) | significantly increased
DBP peptide 11: first 11 amino acids of SEQ ID NO. 1 (Thr Pro Thr Glu Leu Ala Lys Leu Val Asn Lys) (TPTELAKLVNK; listed as Homo sapiens) | significantly increased
DBP peptide 12: first 12 amino acids of SEQ ID NO. 1 (Thr Pro Thr Glu Leu Ala Lys Leu Val Asn Lys Arg) (TPTELAKLVNKR; listed as Homo sapiens) | significantly increased

Each compound was assayed on Ovariectomized Sprague-Dawley rats (assay: High-dose administration to ovariectomized Sprague-Dawley rats). Conditions: 100 ng/g to 30 μg/g body weight every day for 60 days.
Assay type: in vivo
Protocol: Ovariectomized Sprague-Dawley rats were allowed to lose bone from 60 days. Thereafter, animals were injected with glycosylated fADBP or non-glycosylated fADBP, at concentrations ranging from 100 ng/g of body weight to 30 μg/g of body weight every day for 60 days.

Compound | toxic effect
CC(=O)N[C@H]1[C@@H](O[C@H](C)[C@H](NC(=O)[C@@H]2CCCN2C(=O)[C@@H](N)[C@@H](C)O)C(=O)N[C@@H](CCC(=O)O)C(=O)N[C@@H](CC(C)C)C(=O)N[C@@H](C)C(=O)N[C@@H](CCCCN)C(=O)N[C@@H](CC(C)C)C(=O)N[C@H](C(=O)N[C@@H](CC(N)=O)C(=O)N[C@@H](CCCCN)C(=O)N[C@@H](CCCNC(=N)N)C(=O)N[C@@H](CO)C(=O)N[C@@H](CCC(=O)O)C(=O)O)C(C)C)O[C@H](CO)[C@H](O)[C@@H]1O [Glycosylated fADBP] (H-TPT(αGalNAc)ELAKLVNKRSE-OH) | no detectable toxic effect
